Results: patent US20230390275A1, “APPLICATION OF ESTER GROUP-[…] PR[…] AND METABOLITE THEREOF IN PREPARATION OF DRUG FOR TREATING HEART FAILURE” (CHANGCHUN GENESCIENCE PHARMACEUTICAL CO., LTD., priority 2020, published 2023)

What was measured:
Format in all cases: in vivo, Sprague Dawley rats
[1] = tested on: heart failure rats; experiment: Echocardiography of left ventricular function in myocardial infarction heart failure rats; conditions: 3 mpk p.o. qd for 4 weeks; one day after last dose; Mean ± SEM, N = 7
Procedure: (§1) • 1. Vehicle (0.5% CMC Na): formulation: 5 g of CMC Na was weighed out, and the volume was made up to 1000 mL with ddwater; the vehicle was obtained by stirring with a stirrer until the CMC Na was dissolved. • 2. EG017: formulation: a proper amount of the sample was weighed out, and a formula amount of the 0.5% CMC Na was added to prepare 1 mg/kg, 3 mg/kg and 10 mg/kg compound; the formulations were obtained by stirring with a stirrer until the sample was dissolved. Administration regimen: one week after animal modeling, sham/myocardial infarction rats were grouped and administered orally once daily for 28 consecutive days in a volume of 10 mL/kg.
(§2) After adaptive feeding, on the day of the experiment, the animals were anesthetized by intraperitoneal injection of pentobarbital sodium injection (60 mpk), atropine (0.5 mpk) was injected intraperitoneally to eliminate phlegm, and then the trachea was connected with a breathing machine to assist breathing; the chest was cut open from the place between the third rib and the fourth rib and then expanded with a chest expander; the pericardium was torn open, the left anterior descending coronary artery was ligated with 5-0 silk thread, the ribs and skin were sutured, and then the animals were placed on a heat preservation blanket for recovery after operation. The animals in the Sham group were also subjected to the same operation, except that the ligation with silk thread was not performed. After the operation was finished, all the animals are subjected to intramuscular injection of meloxicam (1 mpk) and gentamicin hydrochloride injection (8 mpk) for analgesia and anti-infection. One day before administration, the rats were subjected to cardiac ultrasonography after anesthesia by isoflurane inhalation (1.5%-5% v/v in oxygen), and the ligation was successful if there was no significant contraction of the anterior wall of the left ventricle, the left ventricular cavity was enlarged, and there was a 30% decrease in left ventricular ejection fraction compared to the normal control group. Successfully modeled rats were selected for subsequent experiments (note: ensure that there were 7 animals in each group after modeling, and 7 animals in the sham group). The rats in each group were subjected to intragastric administration of therapeutic agent once daily for four consecutive weeks. During the experiment, the living state of the animals was observed, and the abnormal conditions were recorded; endpoint index detection and sample collection were performed one day after the last dose.
(§3) One week after the modeling of animals, the isoflurane was used for anesthetizing the rats, the Vevo small animal ultrasonic imaging system was used for checking the function of the left ventricle of the model rats, and successful modeling was determined if the LVFE % was reduced by 30%.
(§4) Except for the Sham group, the animals were divided into 9 groups according to LVEF % and body weight, 7 rats in each group. […]

[2] = tested on: heart failure rats; experiment: Body weight and organ weight index (heart weight index, brain/heart weight ratio) in myocardial infarction heart failure rats; parameters: Brain weight/heart weight: unit not given here; conditions: 3 mpk p.o. qd for 4 weeks; endpoint; Mean ± SEM, N = 7
Procedure: as §1, with “mL/kg. […]” for “mL/kg.”
One week after the modeling of animals, the isoflurane was used for anesthetizing the rats, the Vevo small animal ultrasonic imaging system was used for checking the function of the left ventricle of the model rats, and successful modeling was determined if the LVFE % was reduced by 30%. […]

[3] = tested on: heart failure rats; experiment: Hemodynamics (heart rate, arterial blood pressure, left ventricular pressure) in myocardial infarction heart failure rats; parameters: Dp/dt max / Dp/dt min: unit not given here; conditions: 3 mpk p.o. qd for 4 weeks; one day after last dose; Mean ± SEM, N = 7
Procedure: as §1, §2, §3, §4

SMILES: C[C@@](COc1ccc(C#N)cc1)(OC(=O)c1cccnc1)C(=O)Nc1ccc(C#N)c(C(F)(F)F)c1 [EG017, (S)-1-((4-cyano-3-(trifluoromethyl)phenyl)amino)-3-(4-cyanophenoxy)-2-methyl-1-oxopropan-2-yl nicotinate]
- CO [1]: 85.6 ± 9.55 mL/min
- EDV [1]: 477 ± 48.2 µL
- ESV [1]: 238 ± 52.0 µL
- FS [1]: 29.0 ± 3.51 %
- LV mass [1]: 1497 ± 145^ mg
- LVEF [1]: 52.7 ± 5.61 %
- LVPWTd [1]: 2.17 ± 0.17 mm
- LVPWTs [1]: 2.66 ± 0.22 mm
- SV [1]: 238 ± 21.1 µL
- Brain weight/heart weight [2]: 78.3 ± 4.31
- Heart weight index [2]: 0.376 ± 0.025 g/100 g body weight
- DBP [3]: 76.1 ± 3.02 mmHg
- Dp/dt max [3]: 6630 ± 432
- Dp/dt min [3]: −6603 ± 707
- HR [3]: 352 ± 23.3 BPM
- LVSP [3]: 98.5 ± 3.89& mmHg
- MBP [3]: 88.3 ± 3.39 mmHg
- SBP [3]: 98.7 ± 3.62 mmHg
